Assay results from patent publication US9555061B2, “Synthesis and analysis of compounds capable of inducing differentiation of human mesenchymal stems cells into hepatocytes” (National University Corporation Torrori University, priority 2011, dated 2017).

How the values were obtained:
[1] = system: CD90+CD271+ bone marrow-derived mesenchymal stem cells; assay: Urea assay in CD90+CD271+ bone marrow-derived mesenchymal stem cells; assay type: cell-based, human; settings: hexachlorophene 4 μM, PN-3-13 20 μM, IC-2 40 μM; day 8 plus 96 h ammonium chloride
Method: A urea assay was performed according to the following protocol. CD90^+CD271^+ bone marrow-derived mesenchymal stem cells were seeded on a 24-well plate at a cell density of 1.8×10^4 cells/cm^2. This day was designated as day 0. At day 1 corresponding to the next day, each medium was changed to a medium containing hexachlorophene (at a final concentration of 4 μM), HC-2 (at a final concentration of 20 μM), PN-3-13 (at a final concentration of 20 μM), IC-2 (at a final concentration of 40 μM), or 0.1% DMSO. At day 4, the medium was changed in a manner similar to that at day 1, and the cells were cultured until day 8. At day 8, the medium was removed, and replaced with a medium containing ammonium chloride (Nacalai Tesque) at a final concentration of 5 mM. The cells were further cultured for 96 h. At 96 h after the addition of ammonium chloride, levels of urea in the medium were determined using a QuantiChrom Urea Assay Kit (BioAssay Systems) according to the attached protocol by reading the absorbance at a wavelength of 520 nm with a microplate reader. The levels of urea were calculated based on a standard sample according to the attached calculation method. As a negative control for the urea assay, used were CD90^+CD271^+ bone marrow-derived mesenchymal stem cells that were seeded one day before the day of the immunostaining and were not subjected to the differentiation induction.

[2] = system: UE7T-13 cells; assay: RT-PCR of genes encoding liver-specific secretory proteins and cytokines (UE7T-13); assay type: cell-based, human; settings: hexachlorophene 0.8 μM or IC-2 15 μM; days 8, 16, 24
Method: Bone marrow-derived mesenchymal stem cells (UE7T-13 cells) were treated with a compound, hexachlorophene (H4625-25G; Sigma-Aldrich, Inc.) or IC-2. At that time, gene expression of each of liver-specific secretory proteins and cytokines was evaluated. […] This time point was set to day 0.
At the next day corresponding to day 1, the medium was changed to DMEM containing hexachlorophene at a final concentration of 0.8 μM or IC-2 at a final concentration of 15 μM. […] After that, the medium was replaced twice during 8 days, and the cells were subcultured every 8 days. Then, the similar operation was carried out until day 24. At days 8, 16, and 24 after the initiation of the induction, TRIzol (Invitrogen) was used to extract total RNA according to the attached instruction. After the extraction, deoxyribonuclease (Nippon Gene) was added, and the mixture was incubated at 37° C. for 30 min to remove DNA. In a reverse transcription reaction, SuperScriptII Reverse Transcriptase (Invitrogen) and Oligo(dT)15 primer were added to 1 μg of RNA to convert it into cDNA. In a RT-PCR method, the cDNA was diluted by 5 times. Next, 1 μl of the cDNA was used as a template. Then, rTaq DNA polymerase (TOYOBO) was used to amplify the cDNA. MQ water was used as a negative control. cDNA from Huh-7 or UE7T-13 cells was used as a positive control. […]

[3] = system: clinical specimen-derived mesenchymal stem cells; assay: RT-PCR of hepatocyte differentiation marker in clinical specimen-derived mesenchymal stem cells; assay type: cell-based, human; settings: hexachlorophene 4 μM, HC-2 20 μM, PN-3-13 20 μM, IC-2 40 μM
Method: A fresh bone marrow aspirate was collected under informed consent from a patient (a person) with osteoarthritis who underwent replacement arthroplasty at the Department of Orthopedic Surgery, Tottori University Hospital. This aspirate was subjected to density gradient centrifugation using ficoll (Amersham Biosciences) to separate bone marrow mononuclear cells (FIG. 31). These bone marrow mononuclear cells were suspended in 1 ml of Hanks' balanced salt solution (HBSS, Gibco, Life Technologies Corp.) supplemented with a 100-fold diluted APC-labeled anti-CD90 antibody, a 407-fold diluted PE-labeled anti-CD271 antibody, and 2% fetal bovine serum (FBS, Defined, Thermo Fisher Scientific Inc.), and were stained on ice for 30 min. A flow cytometer (MoFlo XDP, Beckman Coulter Inc.) was used to selectively separate mesenchymal stem cells. The resulting cells were cultured in Dulbecco's Modified Eagle's Medium (Low Glucose, Gibco, Life Technologies Corp.) containing 20% FBS, 100 U/ml penicillin, […] streptomycin (Nacalai Tesque), and 20 ng/ml basic fibroblast growth factor (TRANS GENIC INC., Ltd.) on a 35-mm dish under conditions at 37° C. and 5% CO2. The medium was changed every 4 days. After colonies were formed, the cells were detached using a 0.025% trypsin/1 mM EDTA solution (Nacalai Tesque), split on a 100-mm dish, and cultured under conditions at 37° C. and 5% CO2. Then, the cells which were kept 70 to 80% confluent were detached using trypsin treatment. These cells in one dish were divided into four dishes for passage.
Cells were seeded on a 6-well plate at a cell density of 1.8×10^4 cells/cm^2. This day was designated as day 0. At day 1 corresponding to the next day, the medium was changed to a medium containing any one of hexachlorophene (at a final concentration of 4 μM), HC-2 (at a final concentration of 20 μM), PN-3-13 (at a final concentration of 20 μM), IC-2 (at a final concentration of 40 μM), and 0.1% DMSO. […]

[4] = system: Wnt/β-catenin signaling pathway; assay: Ability of inhibiting Wnt/β-catenin pathway, luciferase assay (UE7T-13); assay type: cell-based, human; settings: 8 days after the treatment; pTCF4-CMV-luciferase reporter
From the text: FIG. 3 is a schematic diagram illustrating how to establish a human mesenchymal stem cell stably expressing a β-catenin/TCF4/luciferase reporter gene. FIG. 3 illustrates how to construct pTCF4-CMVpro-GL4.20 plasmid by using a luciferase expression vector. The pTCF4-CMVpro-GL4.20 plasmid contains three TCF4 sequences […] upstream of a CMV promoter to express luciferase. In addition, pCMVpro-GL4.20 plasmid was constructed as a control. The resulting plasmids were each linearized, introduced into UE7T-13 by electroporation, and selected using puromycin (0.25 μg/ml) supplemented in a medium. Puromycin-resistant cells were cloned and used for a luciferase assay.
The cell line having a vector stably expressing luciferase was seeded on a 24-well plate, and was cultured at 37° C. At the next day, the medium was changed to a medium containing IC-2, etc., and the cell line was further cultured at 37° C. After that, at days 1, 4, and 8, a luciferase assay system (Promega) was used and the luciferase activity was read with a fluorescence plate reader (ARVO) at a wavelength of 556 nm.

[5] = system: UE7T-13 cells; assay: Proliferation potential (toxicity), MTT assay (UE7T-13); settings: for concentration with very low cell toxicity toward UE7T-13 cells: days 2, 4, 8 of treatment
[6] = system: UE7T-13 cells; assay: Periodic acid-Schiff (PAS) staining (UE7T-13); assay type: cell-based, human
Method: (3-4) Periodic Acid-Schiff (PAS) Staining (UE7T-13) A cover glass (22×22 mm, […]) was sterilized with 70% EtOH and placed in a 6-well plate. Next, cells were seeded on the cover glass and cultured in a medium containing IC-2, etc. At 8, 16, and 24 days after the initiation of the culture, the cells were washed twice with PBS. Then, the cells were treated with 4% paraformaldehyde/PBS for 20 min and fixed onto the cover glass. As a negative control, 10 mg/ml of α-amylase (10 mg/ml; in 0.1 M phosphate buffer solution at pH 6.8) was added, and the cells were incubated therewith at 37° C. for 1 h to digest their glycogen. Subsequently, 1% aqueous periodic acid was used for oxidation treatment for 10 min. After that, the cells were treated with a Schiff reagent for 15 min to stain glycogen. Then, the cells were washed three times with aqueous sulfurous acid and were washed three times with distilled water. After their nuclei were stained with Mayer's hematoxylin, 50% glycerol diluted with PBS was used to mount the cover glass. Finally, the cells were observed under a light microscope. The cells which had been cultured with 0.1% DMSO were used as a control.

Oc1c(Cl)cc(Cl)c(Cl)c1Cc1c(O)c(Cl)cc(Cl)c1Cl [hexachlorophene, reference compound]
cellular urea synthesis compared with negative control (0.1% DMSO) [1]: apparent increase | expression of a plurality of the liver-specific secretory proteins and cytokines [2]: increased levels of expression | expression of albumin [3]: induced

Cc1ccc(/C=N/NC(=O)c2cccc(Oc3ccccc3)c2)o1 [PN-1-2, N′-[(E)-(5-methyl-2-fulyl)methylidene]-3-phenoxybenzohydrazide]
concentration that significantly inhibited the Wnt/β-catenin signaling pathway [4]: ≥ 3 µM | concentration at which proliferation potential did not remain ([5]; day 8): 10 µM | concentration with very low cell toxicity toward UE7T-13 cells [5]: ≤ 40 µM

Cc1ccc(C=NNC(=O)c2ccccc2Oc2ccccc2)o1 [PNU-74654, N-[(5-methyl-2-furyl)methylideneamino]-2-phenoxy-benzamide]
intracellular glycogen accumulation compared with negative control (0.1% DMSO) [6]: did not increase

O=C(N/N=C/c1cccc2ccccc12)c1ccccc1Oc1ccccc1 [PN-3-4, N′-[(E)-1-naphtylmethylidene]-2-phenoxybenzohydrazide]
concentration that significantly inhibited the Wnt/β-catenin signaling pathway [4]: ≥ 20 µM | concentration with very low cell toxicity toward UE7T-13 cells [5]: ≤ 30 µM
